Source: patent US20060165987A1, “Stealthy polymeric biodegradable nanospheres and uses thereof” (priority 2002, published 2006)

Legend:
[1] = In vitro Rhodamine release (dialysis bag, phosphate buffer); format: physicochemical; details: 37° C.
Protocol: The in vitro Rhodamine release profiles from the (-PLA-PEG-PLA-)n multiblock NS were determined as follows: NS were precisely weighed and suspended in 10 ml of phosphate buffer solution. The NS suspension was introduced into a dialysis membrane bag (Spectra/por™, Molecular weight cut off: 2000-4000, Spectrum Medical Industries, Inc., CA, USA) that was placed in 150 ml of phosphate buffer. This solution was stirred at 37° C. At pre-determined time intervals, 3 ml aliquots of the release medium were withdrawn from the release medium. The release of Rhodamine was monitored using a spectrofluorometer at an excitation wavelength of […] and emission wavelength of 554 nm. The sample was replaced in the release medium. The samples were analyzed by fluorescence since sensitivity will be needed for the incoming blood samples analysis.

[2] = Organ distribution by fluorescence microscopy; format: in vivo; details: rats, after IV injection of nanospheres containing rhodamine, image analysis
Protocol: 0.5 ml was taken at each time step. Plasma levels of rhodamine were measured by fluorescence detection. […] Organs were examined by fluorescence microscopy.

[3] = lifetime of free rhodamine; cited from earlier work

- time of release [1]: ≤ 30 min
- Rhodamine accumulation in the organs [2]: No Rhodamine accumulation
Compound: CCN(CC)c1ccc2c(-c3ccccc3C(=O)O)c3ccc(=[N+](CC)CC)cc-3oc2c1 [Rhodamine, Rhodamine B]
- t1/2 in the body [3]: 3 h
